Results as given in US20250230155A1 (Vanderbilt University, priority 2021, published 2025).
Where two headings read alike, the source gives them in different places.

Target: T1, human mAChR M4 (Homo sapiens, UniProt P08173)
T1 construct: expressed in transfected cells
T1 sequence (P08173 1-479): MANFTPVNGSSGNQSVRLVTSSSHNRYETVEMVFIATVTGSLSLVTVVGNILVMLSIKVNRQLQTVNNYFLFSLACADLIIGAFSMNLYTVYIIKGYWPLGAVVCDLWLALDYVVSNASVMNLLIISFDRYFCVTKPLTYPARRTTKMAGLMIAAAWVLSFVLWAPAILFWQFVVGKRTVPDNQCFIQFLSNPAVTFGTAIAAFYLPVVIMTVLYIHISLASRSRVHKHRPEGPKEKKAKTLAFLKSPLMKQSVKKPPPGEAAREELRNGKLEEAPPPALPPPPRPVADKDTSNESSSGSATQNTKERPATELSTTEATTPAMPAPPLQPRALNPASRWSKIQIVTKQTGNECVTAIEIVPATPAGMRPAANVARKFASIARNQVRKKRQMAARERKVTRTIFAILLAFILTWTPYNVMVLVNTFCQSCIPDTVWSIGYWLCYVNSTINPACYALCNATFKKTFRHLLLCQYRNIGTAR
Assay: mAChR M4 cell-based functional assay (calcium mobilization, CHO-K1 hM4-Gqi5 cells)
Conditions: for Emax at 30 µM: CHO-K1, % ACh maximum at 30 μM, human M4; for EC50: increase in the EC20 acetylcholine response, CHO-K1 hM4-Gqi5 cells; for Emax: CHO-K1
How it was run: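 CHO-K1 cells stably expressing human M4 with chimeric Gqi5, loaded with Fluo-4 AM; compounds given as 11-point 1:3 curves and calcium flux read on FDSS at 1 Hz. Acetylcholine EC20 added at 144 s, EC80 at 230 s; agonist, PAM (EC20 potentiation) and antagonist (EC80 inhibition) EC50/Emax from four-parameter fits.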

[1] = positive allosteric modulator activity, read-out: Human M4 EC50

Emax at 30 µM [%]	EC50 [1] [nM]	Compound	Emax [%]	EC50 (Human M4 EC50, positive allosteric modulator activity) [nM]
69	3130	Cc1cc(C(=O)NCc2cccc(F)c2)cnc1N1CCc2ncccc2C1 [compound 159, 6-(7,8-dihydro-5H-1,6-naphthyridin-6-yl)-N-[(3-fluorophenyl)methyl]-5-methyl-pyridine-3-carboxamide]		
51	≥ 10000	Cc1cc(C(=O)NCC2CCOCC2)cnc1N1CCc2ncccc2C1 [compound 160, 6-(7,8-dihydro-5H-1,6-naphthyridin-6-yl)-5-methyl-N-(tetrahydropyran-4-ylmethyl)pyridine-3-carboxamide]		
58	≥ 10000	Cc1cc(C(=O)NCC2CCCCO2)cnc1N1CCc2ncccc2C1 (stereo not shown) [compound 161, 6-(7,8-dihydro-5H-1,6-naphthyridin-6-yl)-5-methyl-N-(tetrahydropyran-2-ylmethyl)pyridine-3-carboxamide]		
65	3350	COc1cccc2cc(CNC(=O)c3cnc(N4CCc5ncccc5C4)c(C)c3)oc12 [compound 162, 6-(7,8-dihydro-5H-1,6-naphthyridin-6-yl)-N-[(7-methoxybenzofuran-2-yl)methyl]-5-methyl-pyridine-3-carboxamide]		
65	2660	Cc1cc(C(=O)NCc2ccc[nH]2)cnc1N1CCc2ncccc2C1 [compound 163, 6-(7,8-dihydro-5H-1,6-naphthyridin-6-yl)-5-methyl-N-(1H-pyrrol-2-ylmethyl)pyridine-3-carboxamide]		
54	≥ 10000	Cc1cc(C(=O)NCc2ccc3c(c2)CCS3(=O)=O)cnc1N1CCc2ncccc2C1 [compound 164, 6-(7,8-dihydro-5H-1,6-naphthyridin-6-yl)-N-[(1,1-dioxo-2,3-dihydrobenzothiophen-5-yl)methyl]-5-methyl-pyridine-3-carboxamide]		
111	145	Cc1cc(C#N)cnc1N1CCc2ncc(C(F)(F)F)cc2C1 [compound 165, 5-methyl-6-[3-(trifluoromethyl)-7,8-dihydro-5H-1,6-naphthyridin-6-yl]pyridine-3-carbonitrile]		
91	265	Cc1cc(C#N)cnc1N1CCc2ncc(Nc3ncccc3F)cc2C1 [compound 167, 6-[3-[(3-fluoro-2-pyridyl)amino]-7,8-dihydro-5H-1,6-naphthyridin-6-yl]-5-methyl-pyridine-3-carbonitrile]		
91	420	Cc1cc(C#N)cnc1N1CCc2ncc(-c3cccc(F)n3)cc2C1 [compound 168, 6-[3-(6-fluoro-2-pyridyl)-7,8-dihydro-5H-1,6-naphthyridin-6-yl]-5-methyl-pyridine-3-carbonitrile]		
100	111	Cc1c(C#N)nnc(N2CCc3ncc(Nc4ccnn4C)cc3C2)c1C [compound 169, 4,5-dimethyl-6-[3-[(2-methylpyrazol-3-yl)amino]-7,8-dihydro-5H-1,6-naphthyridin-6-yl]pyridazine-3-carbonitrile]		
103	110	Cc1cc(C(=O)NCc2nccs2)cnc1N1CCc2ncc(-c3cn(C)nc3C)cc2C1 [compound 170, 6-[3-(1,3-dimethylpyrazol-4-yl)-7,8-dihydro-5H-1,6-naphthyridin-6-yl]-5-methyl-N-(thiazol-2-ylmethyl)pyridine-3-carboxamide]		
87	265	Cc1cc(C(=O)NCc2nccs2)cnc1N1CCc2ncc(-c3ccn(C)n3)cc2C1 [compound 171, 5-methyl-6-[3-(1-methylpyrazol-3-yl)-7,8-dihydro-5H-1,6-naphthyridin-6-yl]-N-(thiazol-2-ylmethyl)pyridine-3-carboxamide]		
93	78.5	Cc1cc(C(=O)NCc2nccs2)cnc1N1CCc2ncc(-c3c(C)noc3C)cc2C1 [compound 172, 6-[3-(3,5-dimethylisoxazol-4-yl)-7,8-dihydro-5H-1,6-naphthyridin-6-yl]-5-methyl-N-(thiazol-2-ylmethyl)pyridine-3-carboxamide]		
95	77.3	Cc1cc(C(=O)NCc2nccs2)cnc1N1CCc2ncc(-c3cnn(C)c3)cc2C1 [compound 173, 5-methyl-6-[3-(1-methylpyrazol-4-yl)-7,8-dihydro-5H-1,6-naphthyridin-6-yl]-N-(thiazol-2-ylmethyl)pyridine-3-carboxamide]		
98	75.8	Cc1cc(F)ncc1-c1cnc2c(c1)CN(c1ncc(C(=O)NCc3nccs3)cc1C)CC2 [compound 174, 6-[3-(6-fluoro-4-methyl-3-pyridyl)-7,8-dihydro-5H-1,6-naphthyridin-6-yl]-5-methyl-N-(thiazol-2-ylmethyl)pyridine-3-carboxamide]		
89	145	Cc1cc(C(=O)NCc2nccs2)cnc1N1CCc2ncc(-c3cccnc3F)cc2C1 [compound 175, 6-[3-(2-fluoro-3-pyridyl)-7,8-dihydro-5H-1,6-naphthyridin-6-yl]-5-methyl-N-(thiazol-2-ylmethyl)pyridine-3-carboxamide]		
89	188	Cc1cc(C(=O)NCc2ccncc2)cnc1N1CCc2ncc(-c3cnn(C)c3)cc2C1 [compound 176, 5-methyl-6-[3-(1-methylpyrazol-4-yl)-7,8-dihydro-5H-1,6-naphthyridin-6-yl]-N-(4-pyridylmethyl)pyridine-3-carboxamide]		
91	101	Cc1cc(F)ncc1-c1cnc2c(c1)CN(c1ncc(C(=O)NCc3ccncc3)cc1C)CC2 [compound 177, 6-[3-(6-fluoro-4-methyl-3-pyridyl)-7,8-dihydro-5H-1,6-naphthyridin-6-yl]-5-methyl-N-(4-pyridylmethyl)pyridine-3-carboxamide]		
87	262	Cc1cc(C(=O)NCc2ccncc2)cnc1N1CCc2ncc(-c3cccnc3F)cc2C1 [compound 178, 6-[3-(2-fluoro-3-pyridyl)-7,8-dihydro-5H-1,6-naphthyridin-6-yl]-5-methyl-N-(4-pyridylmethyl)pyridine-3-carboxamide]		
		Cc1cnc2c(c1)CN(c1ncc(C#N)cc1C)CC2 [compound 179, 5-methyl-6-(3-methyl-7,8-dihydro-5H-1,6-naphthyridin-6-yl)pyridine-3-carbonitrile]	98	100
94	96.9	Cc1cc(C#N)cnc1N1CCc2ncc(Oc3ccccc3F)cc2C1 [compound 180, 6-[3-(2-fluorophenoxy)-7,8-dihydro-5H-1,6-naphthyridin-6-yl]-5-methyl-pyridine-3-carbonitrile]		
90	141	Cc1cc(C#N)cnc1N1CCc2ncc(Oc3cccc(F)c3)cc2C1 [compound 181, 6-[3-(3-fluorophenoxy)-7,8-dihydro-5H-1,6-naphthyridin-6-yl]-5-methyl-pyridine-3-carbonitrile]		

Compound	Emax at 30 µM [%]	EC50 [1] [nM]	Emax [%]	EC50 (Human M4 EC50, positive allosteric modulator activity) [nM]
Cc1cc(C#N)cnc1N1CCc2ncc(Nc3cccnc3F)cc2C1 [compound 166, 6-[3-[(2-fluoro-3-pyridyl)amino]-7,8-dihydro-5H-1,6-naphthyridin-6-yl]-5-methyl-pyridine-3-carbonitrile]		45.1	106	
